Measurements: ChEMBL document CHEMBL3046260, “Synthesis of benzo[b][1,4]oxazin-3(4H)-ones via smiles rearrangement for antimicrobial activity” (2011)
≈ marks a conversion by molar mass, not a printed value. Calls of active or inactive are those of the source. The rule behind the calls is not given here.

Columns and labels:
Pseudomonas aeruginosa [1] = assay: Antimicrobial activity against Pseudomonas aeruginosa ATCC 27853 after 24 hr by two-fold serial dilution method; assay type: functional; settings: ATCC 27853, 24 h
Pseudomonas aeruginosa [2] = assay: Microbiostatic activity against Pseudomonas aeruginosa ATCC 27853 after 24 hr
Bacillus spizizenii [3] = assay: Microbiostatic activity against Bacillus subtilis subsp. spizizenii ATCC 6633 after 24 hr
Candida albicans [4] = assay: Antimicrobial activity against Candida albicans ATCC 76615 after 48 hr by two-fold serial dilution method; assay type: functional; settings: ATCC 76615, 48 h
Aspergillus flavus [5] = assay: Microbiostatic activity against Aspergillus flavus ATCC 10124; assay type: functional, organism-based
Proteus vulgaris [6] = assay: Microbiostatic activity against Proteus vulgaris ATCC 6896 after 24 hr
Staphylococcus aureus [7] = assay: Microbiostatic activity against Staphylococcus aureus ATCC 25923 after 24 hr
Bacillus spizizenii [8] = assay: Antimicrobial activity against Bacillus subtilis subsp. spizizenii ATCC 6633 after 24 hr by two-fold serial dilution method; assay type: functional; settings: ATCC 6633, 24 h
Candida albicans [9] = assay: Microbiostatic activity against Candida albicans ATCC 76615; assay type: functional, organism-based
Proteus vulgaris [10] = assay: Antimicrobial activity against Proteus vulgaris ATCC 6896 after 24 hr by two-fold serial dilution method; assay type: functional; settings: ATCC 6896, 24 h
Escherichia coli [11] = assay: Antimicrobial activity against Escherichia coli ATCC 25922 after 24 hr by two-fold serial dilution method; assay type: functional; settings: ATCC 25922, 24 h
Staphylococcus aureus [12] = assay: Antimicrobial activity against Staphylococcus aureus ATCC 25923 after 24 hr by two-fold serial dilution method; assay type: functional; settings: ATCC 25923, 24 h
Aspergillus flavus [13] = assay: Antimicrobial activity against Aspergillus flavus ATCC 10124 after 48 hr by two-foldserial dilution method; assay type: functional; settings: ATCC 10124, 48 h
Escherichia coli [14] = assay: Microbiostatic activity against Escherichia coli ATCC 25922 after […]; assay type: functional, organism-based

Compound	MIC (Pseudomonas aeruginosa [1])	Activity (Pseudomonas aeruginosa [2])	Activity (Bacillus spizizenii [3])	MIC (Candida albicans [4])	Activity (Aspergillus flavus [5])	Activity (Proteus vulgaris [6])	Activity (Staphylococcus aureus [7])	MIC (Bacillus spizizenii [8])	Activity (Candida albicans [9])	MIC (Proteus vulgaris [10])	MIC (Escherichia coli [11])	MIC (Staphylococcus aureus [12])	MIC (Aspergillus flavus [13])	Activity (Escherichia coli [14])
O=C1COc2c(Cl)cccc2N1C1CCCCC1	16 µg/mL (≈ 60.2 µM)	Active	Active	128 µg/mL (≈ 482 µM)	Active	Active	Active	32 µg/mL (≈ 120 µM)	Active	32 µg/mL (≈ 120 µM)	32 µg/mL (≈ 120 µM)	64 µg/mL (≈ 241 µM)	256 µg/mL (≈ 963 µM)	Active
O=C1COc2ccc(Cl)cc2N1Cc1ccccc1	128 µg/mL (≈ 468 µM)	Active	Active	64 µg/mL (≈ 234 µM)	Active	Active	Active	32 µg/mL (≈ 117 µM)	Active	32 µg/mL (≈ 117 µM)	128 µg/mL (≈ 468 µM)	64 µg/mL (≈ 234 µM)	32 µg/mL (≈ 117 µM)	Active
CCCCCCN1C(=O)COc2cc(F)ccc21	128 µg/mL (≈ 509 µM)	Active	Active	128 µg/mL (≈ 509 µM)	Active	Active	Active	32 µg/mL (≈ 127 µM)	Active	16 µg/mL (≈ 63.7 µM)	16 µg/mL (≈ 63.7 µM)	32 µg/mL (≈ 127 µM)	128 µg/mL (≈ 509 µM)	Active
O=C1COc2cc(Cl)ccc2N1CCc1ccccc1	16 µg/mL (≈ 55.6 µM)	Active	Active	128 µg/mL (≈ 445 µM)	Active	Active	Active	64 µg/mL (≈ 222 µM)	Active	16 µg/mL (≈ 55.6 µM)	32 µg/mL (≈ 111 µM)	64 µg/mL (≈ 222 µM)	–	Active
O=C1COc2cc(F)ccc2N1Cc1ccccc1	16 µg/mL (≈ 62.2 µM)	Active	Active	256 µg/mL (≈ 995 µM)	Active	Active	Active	32 µg/mL (≈ 124 µM)	Active	32 µg/mL (≈ 124 µM)	16 µg/mL (≈ 62.2 µM)	64 µg/mL (≈ 249 µM)	128 µg/mL (≈ 498 µM)	Active
CC(C)(O/N=C(\C(=O)N[C@@H]1C(=O)N2C(C(=O)[O-])=C(C[n+]3ccccc3)CS[C@H]12)c1csc(N)n1)C(=O)O [CEFTAZIDIME]	128 µg/mL (≈ 234 µM)	Active	Active	–	Active	Active	Active	2 µg/mL (≈ 3.66 µM)	Active	4 µg/mL (≈ 7.32 µM)	4 µg/mL (≈ 7.32 µM)	4 µg/mL (≈ 7.32 µM)	–	Active
O=C1COc2cc(Br)ccc2N1C1CCCCC1	16 µg/mL (≈ 51.6 µM)	Active	Active	256 µg/mL (≈ 825 µM)	Active	Active	Active	32 µg/mL (≈ 103 µM)	Active	32 µg/mL (≈ 103 µM)	16 µg/mL (≈ 51.6 µM)	32 µg/mL (≈ 103 µM)	–	Active
CCCCCCN1C(=O)COc2cc(Br)ccc21	32 µg/mL (≈ 102 µM)	Active	Active	128 µg/mL (≈ 410 µM)	Active	Active	Active	32 µg/mL (≈ 102 µM)	Active	16 µg/mL (≈ 51.2 µM)	32 µg/mL (≈ 102 µM)	32 µg/mL (≈ 102 µM)	–	Active
Clc1ccccc1C(c1ccccc1)(c1ccccc1)n1ccnc1 [CLOTRIMAZOLE]	512 µg/mL (≈ 1480 µM)	Active	Active	2 µg/mL (≈ 5.8 µM)	Active	Active	Active	512 µg/mL (≈ 1480 µM)	Active	512 µg/mL (≈ 1480 µM)	512 µg/mL (≈ 1480 µM)	512 µg/mL (≈ 1480 µM)	2 µg/mL (≈ 5.8 µM)	Active
O=C1COc2cc(Cl)ccc2N1CC1CCCO1 (stereo not drawn)	64 µg/mL (≈ 239 µM)	Active	Active	128 µg/mL (≈ 478 µM)	Active	Active	Active	32 µg/mL (≈ 120 µM)	Active	32 µg/mL (≈ 120 µM)	32 µg/mL (≈ 120 µM)	32 µg/mL (≈ 120 µM)	256 µg/mL (≈ 956 µM)	Active
O=C1COc2cc(Br)ccc2N1Cc1ccccc1	16 µg/mL (≈ 50.3 µM)	Active	Active	128 µg/mL (≈ 402 µM)	Active	Active	Active	32 µg/mL (≈ 101 µM)	Active	32 µg/mL (≈ 101 µM)	32 µg/mL (≈ 101 µM)	32 µg/mL (≈ 101 µM)	128 µg/mL (≈ 402 µM)	Active
O=C1COc2cc(F)ccc2N1CC1CCCO1 (stereo not drawn)	128 µg/mL (≈ 509 µM)	Active	Active	256 µg/mL (≈ 1020 µM)	Active	Active	Active	32 µg/mL (≈ 127 µM)	Active	16 µg/mL (≈ 63.7 µM)	32 µg/mL (≈ 127 µM)	32 µg/mL (≈ 127 µM)	–	Active
O=C1COc2ccc(Cl)cc2N1C1CCCCC1	64 µg/mL (≈ 241 µM)	Active	Active	32 µg/mL (≈ 120 µM)	Active	Active	Active	32 µg/mL (≈ 120 µM)	Active	16 µg/mL (≈ 60.2 µM)	128 µg/mL (≈ 482 µM)	128 µg/mL (≈ 482 µM)	32 µg/mL (≈ 120 µM)	Active
O=C1COc2cc(Br)ccc2N1CC1CCCO1 (stereo not drawn)	64 µg/mL (≈ 205 µM)	Active	Active	128 µg/mL (≈ 410 µM)	Active	Active	Active	32 µg/mL (≈ 103 µM)	Active	32 µg/mL (≈ 103 µM)	32 µg/mL (≈ 103 µM)	32 µg/mL (≈ 103 µM)	–	Active
CCCCCCN1C(=O)COc2cc(Cl)ccc21	32 µg/mL (≈ 120 µM)	Active	Active	512 µg/mL (≈ 1910 µM)	Active	Active	Active	32 µg/mL (≈ 120 µM)	Active	16 µg/mL (≈ 59.8 µM)	32 µg/mL (≈ 120 µM)	32 µg/mL (≈ 120 µM)	–	Active
O=C1COc2cc(Cl)ccc2N1Cc1ccccc1	16 µg/mL (≈ 58.5 µM)	Active	Active	128 µg/mL (≈ 468 µM)	Active	Active	Active	32 µg/mL (≈ 117 µM)	Active	64 µg/mL (≈ 234 µM)	64 µg/mL (≈ 234 µM)	64 µg/mL (≈ 234 µM)	128 µg/mL (≈ 468 µM)	Active
O=C1COc2cc(Cl)ccc2N1C1CCCCC1	32 µg/mL (≈ 120 µM)	Active	Active	256 µg/mL (≈ 963 µM)	Active	Active	Active	64 µg/mL (≈ 241 µM)	Active	64 µg/mL (≈ 241 µM)	32 µg/mL (≈ 120 µM)	64 µg/mL (≈ 241 µM)	128 µg/mL (≈ 482 µM)	Active
CN[C@@H]1[C@H](O[C@H]2[C@H](O[C@H]3[C@H](O)[C@@H](O)[C@H](N=C(N)N)[C@@H](O)[C@@H]3N=C(N)N)O[C@@H](C)[C@]2(O)C=O)O[C@@H](CO)[C@H](O)[C@H]1O [STREPTOMYCIN]	2 µg/mL (≈ 3.44 µM)	Active	Active	–	Active	Active	Active	32 µg/mL (≈ 55 µM)	Active	4 µg/mL (≈ 6.88 µM)	4 µg/mL (≈ 6.88 µM)	2 µg/mL (≈ 3.44 µM)	–	Active
O=C1COc2cc(F)ccc2N1C1CCCCC1	16 µg/mL (≈ 64.2 µM)	Active	Active	256 µg/mL (≈ 1030 µM)	Active	Active	Active	32 µg/mL (≈ 128 µM)	Active	16 µg/mL (≈ 64.2 µM)	16 µg/mL (≈ 64.2 µM)	16 µg/mL (≈ 64.2 µM)	64 µg/mL (≈ 257 µM)	Active
CC1(C)S[C@@H]2[C@H](NC(=O)[C@H](N)c3ccccc3)C(=O)N2[C@H]1C(=O)O [AMPICILLIN]	128 µg/mL (≈ 366 µM)	Active	Active	–	Active	Active	Active	1 µg/mL (≈ 2.86 µM)	Active	16 µg/mL (≈ 45.8 µM)	16 µg/mL (≈ 45.8 µM)	2 µg/mL (≈ 5.72 µM)	–	Active
